Test results reported in patent US12600732B2, “Bifunctional compounds for degrading BTK via ubiquitin proteosome pathway” (NURIX THERAPEUTICS, INC., priority 2019, dated 2026).
Like-named read-outs stand apart in the source and are kept apart here.

Key:
BTK [1] = biological target: T1, BTK (Mus musculus, UniProt P35991); test: In vivo degradation of BTK in mouse PD experiments with oral dosing; details: flow cytometry
T1 construct: from tissue; host or cells: mouse blood B cells / splenocytes (CD-1 or BALB/c)
How it was run: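 CD-1 or BALB/c mice dosed by oral gavage, screens at 90 mg/kg for 6 h, later at lower doses/longer times. Blood or splenocyte BTK measured by intracellular flow cytometry (or HTRF); % degradation from B-cell minus T-cell BTK geometric MFI, relative to vehicle.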

BTK [2] = biological target: T2, BTK (Homo sapiens, UniProt Q06187); test: Cellular BTK degradation assay (Total BTK HTRF) in TMD8 cells; assay type: cell-based; set-up: endogenous in cells; host or cells: TMD8
Protocol: Cellular BTK Degradation Assay
In Vitro Cellular Screening to Determine Potency as Measured by DC50 Values after Four Hour Incubation
(§1) BTK levels were determined using Cisbio Total-BTK HTRF (Homologous Time-Resolved Fluorescence) kit (63ADK064PEG) according to the manufacturer's protocol. Briefly, cells were incubated in 1× supplied lysis buffer for 30 minutes. In an opaque white low volume 96-well plate (Cisbio, 66PL96005), cell lysate was combined with two different specific BTK antibodies, one conjugated with Eu^3+-Cryptate FRET donor and one conjugated with d2 FRET acceptor. Assay controls include wells containing cell lysate with only the Eu^3+-Cryptate FRET donor antibody and wells containing both HTRF antibodies and lysis buffer without cells or control lysate provided by Cisbio. HTRF ratio was calculated as (acceptor signal at 665 nm/donor signal at 620 nm)×10^4. Background HTRF levels were determined from the control well containing the donor, but no acceptor, antibody. Background HTRF levels were subtracted from all samples. Readouts were reported as HTRF levels relative to HTRF levels of DMSO-treated cells. Four-parameter non-linear regressions were performed in GraphPad Prism 7.02 to obtain DC50 values.
Cellular BTK degradation was measured as above for four hours in TMD8 cells for two diastereomers of compound 130. DC50 and EC50 values are the concentration at which the response is halfway between the top and bottom of the fitted non-linear regression curve.
The present example evaluates whether potency of BTK CTMs shifts with longer timepoints. DC50 values are typically calculated with a 4-hour timepoint.

BTK [3] = biological target: T2, BTK; test: BTK remaining in TMD8 WT mouse xenograft study; assay type: in vivo; set-up: from tissue; host or cells: TMD8 xenograft in CB.17 SCID mice; details: PO, 30 mg/kg, QD, 21 days of dosing
Source text: Efficacy in Mouse Xenograft Models
(§2) This example examines the activity of various BTK CTMs in relevant disease models, including the WT and C481S TMD8 model, which models B cell malignancies with/without inhibitor-driven BTK mutations at C481.

TMD8 tumor cells = test: TMD8 xenograft efficacy study (wild-type BTK); assay type: in vivo, mouse; details: TMD8 WT, PO, 30 mg/kg, QD, 21 days of dosing
Protocol: […] Tumor growth inhibition (% TGI) were calculated on the final day of measurement using the equation [1−(T−T0/C−T0)]×100, where T and C represent the mean size of tumors in the treated (T) and control (C) groups, and T0 refers to the tumor size at randomization.
as §2

TMD8 cells [4] = test: Cell viability assay (CellTiter-Glo), TMD8 cells; details: for EC50: Homo sapiens, TMD8, 72 h; for EMAX (% viable cells): TMD8 cells, treatment time 72 h
primary human T cells [5] = test: T cell activation assay, CD25 and CD69 staining (flow cytometry); assay type: cell-based; details: fold-change of response relative to baseline
How it was run: (§3)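 Primary human T cells stimulated via TCR with anti-CD3/anti-CD28 in the presence of test compound. IL-2 secretion measured by ELISA; surface CD25 and CD69 by flow cytometry. Values are fold-change versus anti-CD3/anti-CD28 stimulation without compound.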

primary human T cells [6] = test: T cell activation assay, IL-2 secretion (ELISA); assay type: cell-based
How it was run: as §3

BTK C481S = BTK C481S (Homo sapiens, UniProt Q06187, C481S); test: BTK degradation (Total BTK HTRF) in TMD8 cells expressing BTK-C481S; assay type: cell-based; set-up: endogenous in cells; host or cells: TMD8 BTK-C481S (clone2C3), Cas9 RNP knock-in; details: TMD8 BTK-C481S (clone2C3) cells, treatment time 4 h
Protocol: as §1
BTK Degradation (Total BTK HTRF) at Four Hours in TMD8 Cells Expressing BTK-C481S
This example evaluates the potency of CTM in degrading […]. The BTK binding moieties utilized in CTMs bind to the BTK active site. This example evaluates whether the active site mutation C481S affects CTM-induced degradation of BTK.

[7] = system: B cell receptor (BCR) signaling; test: B cell activation assay (flow cytometry), mouse B cells; assay type: cell-based; details: treatment 4 h, IgM stimulation 18 h
Protocol: (§4) Compound was present throughout the stimulation. Cells were stained with Live/Dead dye (Fisher L34976) and then fluorophore-conjugated antibodies against CD20 (Biolegend 302330), CD3 (BD Pharmingen 557705), CD86 (Biolegend 305416) and CD69 (Biolegend 310906). Stained cells were fixed in PFA and run on an Attune N×T Acoustic Focusing Flow Cytometer (Thermo-Fisher A29004), and data was analyzed using FlowJo (v10.5.3) and GraphPad Prism (v7.00) software. Single live lymphocytes were gated for B cells (CD20+CD3−) and T cells (CD3+CD20−), and the geometric mean fluorescence intensity (MFI) of CD86 and CD69 was calculated for each population. The MFI of the unstimulated sample was used to quantify baseline activation.
(§5) This example evaluates whether CTM treatment affects B cell receptor (BCR) signaling. BTK is activated downstream of the B cell receptor and leads to upregulation of activation markers CD86 and CD69 on the surface of B cells.

TMD8 C481S cells [8] = test: Cell viability assay (CellTiter-Glo), TMD8 C481S cells; details: for EC50: Homo sapiens, TMD8, 72 h; for EMAX (% viable cells): TMD8 C481S cells, treatment time 72 h
Protocol: (§7) Cell viability was determined using CellTiter-Glo 2.0 Luminescent Cell Viability Assay (Promega, G9242), which quantitates the amount of ATP present as a proxy for the number of viable cells in culture. Cells were plated with densities between 2000-4000 cells per well in 96-well plates. […] CellTiter-Glo reagent was added to cells at a dilution of 1:20, and the plate was incubated ten minutes at room temperature prior to reading the luminescence signal using an EnVision plate reader. Controls included cells treated with DMSO and wells that contained no cells, only media. Background luminescence signal was determined by control wells containing no cells, only media, and was then subtracted from all sample wells. Luminescence values were then normalized to DMSO-treated wells and reported at proportion viable cells.

[9] = PK data for BTK CTMs (in vivo plasma concentrations); details: for Vd: read-out: Volume of Distribution
Source text: The present example evaluates in vivo plasma concentrations of BTK CTMs to develop PK-PD-efficacy relationship and predict human exposure.

[10] = system: B cell receptor (BCR) signaling; test: B cell activation assay (flow cytometry), human B cells; assay type: cell-based; details: treatment 4 h, IgM stimulation 18 h
Protocol: as §4, §5

Mino cells = test: Cell viability assay (CellTiter-Glo), Mino cells; assay type: cell-based; details: Mino cells, treatment time 72 h
Source text: (§6) This example evaluates effects of CTM-mediated degradation on cell viability. […] Mino and Rec-1 are models of Mantle Cell Lymphoma, which is sensitive to IMiDs.

Rec-1 cells = test: Cell viability assay (CellTiter-Glo), Rec-1 cells; assay type: cell-based
Source text: as §6

TMD8 cells [11] = details: human, 72 h
TMD8 C481S cells [12] = details: human, 72 h
Protocol: as §7

[13] = oral dose 3 mg/kg, 24 h, splenocytes
[14] = oral dose 10 mg/kg, 24 h, blood
[15] = oral dose 10 mg/kg, 24 h, splenocytes
[16] = Rat Sprague-Dawley, 10 mg/kg PO
[17] = oral dose 30 mg/kg, 24 h, blood

CN1CCN([C@@H]2CCCN(c3cnc(C(N)=O)c(Nc4ccc(C5CCN(CC6CCN(c7ccc(C(=O)N[C@@H]8CCC(=O)NC8=O)nc7)CC6)CC5)cc4)n3)C2)C1=O [Compound 194]
% BTK Remaining (BTK [1]; oral dose 3 mg/kg, 24 h, blood): 90% | % BTK Remaining (BTK [1]; [13]): 95% | % BTK Remaining (BTK [1]; [14]): 63% | % BTK Remaining (BTK [1]; [15]): 57% | DC50 (BTK [2]; treatment time 4 h): 4.3 nM

CN1CCN([C@@H]2CCCN(c3cnc(C(N)=O)c(Nc4ccc(C5CN(C6CCN(c7ccc8c(c7)C(=O)N(C7CCC(=O)NC7=O)C8=O)CC6)C5)cc4)n3)C2)C1=O (stereo partly shown) [Compound 37]
BTK Remaining (% relative to vehicle) (BTK [3]): 16% | Tumor Growth Inhibition (relative to vehicle) (TMD8 tumor cells): 41% | EC50 (TMD8 cells [4]): 21.1 nM | EMAX (% viable cells) (TMD8 cells [4]): 10% | CD25 Staining Anti-CD3/Anti-CD28 Stimulation (primary human T cells [5]; 1.4 nM): 1.11 | CD69 Staining Anti-CD3/Anti-CD28 Stimulation (primary human T cells [5]; 1.4 nM): 1.08 | CD25 Staining Anti-CD3/Anti-CD28 Stimulation (primary human T cells [5]; 37 nM): 0.79 | CD69 Staining Anti-CD3/Anti-CD28 Stimulation (primary human T cells [5]; 37 nM): 0.77 | CD25 Staining Anti-CD3/Anti-CD28 Stimulation (primary human T cells [5]; 333 nM): 0.43 | CD69 Staining Anti-CD3/Anti-CD28 Stimulation (primary human T cells [5]; 333 nM): 0.45 | IL-2 Secretion Anti-CD3/Anti-CD28 Stimulation (primary human T cells [6]; 1.4 nM, fold-change of response relative to baseline): 1.16 | IL-2 Secretion Anti-CD3/Anti-CD28 Stimulation (primary human T cells [6]; 37 nM, fold-change of response relative to baseline): 2.06 | IL-2 Secretion Anti-CD3/Anti-CD28 Stimulation (primary human T cells [6]; 333 nM, fold-change of response relative to baseline (stimulation without compound)): 1.64 | DC50 (BTK C481S): 2.7 nM | EC50 ([7]; read-out: CD69 EC50): 0.1 nM | EC50 ([7]; read-out: CD86 EC50): 0.2 nM | EC50 (TMD8 C481S cells [8]): 51.7 nM | EMAX (% viable cells) (TMD8 C481S cells [8]): 16% | % BTK Remaining (BTK [1]; oral dose 3 mg/kg, 6 h, blood): 26% | % BTK Remaining (BTK [1]; oral dose 3 mg/kg, 24 h, blood): 51% | AUC ([9]; Mouse Balb/c, 1 mg/kg IV): 1.77 µM·h | clearance ([9]; Mouse Balb/c, 1 mg/kg IV): 12 mL/min/kg | Vd ([9]; Mouse Balb/c, 1 mg/kg IV): 1.2 L/kg | AUC ([9]; Mouse Balb/c, 30 mg/kg PO): 1.79 µM·h | bioavailability ([9]; Mouse Balb/c, 30 mg/kg PO): 5% | AUC ([9]; Rat Sprague-Dawley, 1 mg/kg IV): 0.59 µM·h | clearance ([9]; Rat Sprague-Dawley, 1 mg/kg IV): 36.3 mL/min/kg | Vd ([9]; Rat Sprague-Dawley, 1 mg/kg IV): 4.6 L/kg | AUC [9, 16]: 0.027 µM·h | bioavailability [9, 16]: 1%

NC(=O)c1ncc(-c2nccs2)nc1Nc1ccc(N2CCC3(CCN(Cc4ccc5c(c4)C(=O)N(C4CCC(=O)NC4=O)C5=O)CC3)CC2)cc1 (stereo not shown) [Compound 150]
% BTK Remaining (BTK [1]; [17]): 25% | DC50 (BTK [2]; treatment time 24 h): 4.7 nM

CN1CCN([C@@H]2CCCN(c3cnc(C(N)=O)c(Nc4ccc(C5CCN(CC6CCN(c7ccc(C(=O)N[C@H]8CCC(=O)NC8=O)nc7)CC6)CC5)cc4)n3)C2)C1=O [Compound 195]
% BTK Remaining (BTK [1]; oral dose 3 mg/kg, 24 h, blood): 40% | % BTK Remaining (BTK [1]; [13]): 39% | % BTK Remaining (BTK [1]; [14]): 25% | % BTK Remaining (BTK [1]; [15]): 23% | DC50 (BTK [2]; treatment time 4 h): 0.26 nM

CC#CC(=O)N1CCC[C@H]1c1nc(-c2ccc(C(=O)Nc3ccccn3)cc2)c2c(N)nccn12 [Acalabrutinib, acalabrutinib, reference compound]
EC50 ([10]; read-out: CD69 EC50): 2 nM | EC50 ([10]; read-out: CD86 EC50): 3 nM | EC50 (TMD8 cells [4]): 12 nM | EMAX (% viable cells) (TMD8 cells [4]): 35% | EC50 (Mino cells; Homo sapiens): 1240 nM | EMAX (% viable cells) (Mino cells): 84% | EC50 (Rec-1 cells; Homo sapiens, Rec1, treatment time 72 h): 582 nM | EMAX (% viable cells) (Rec-1 cells; treatment time 72 h): 76% | EC50 ([7]; read-out: CD69 EC50): 1 nM | EC50 ([7]; read-out: CD86 EC50): 3 nM | EC50 (TMD8 C481S cells [8]): > 2000 nM | EMAX (% viable cells) (TMD8 C481S cells [8]): 96%

CN1CCN([C@@H]2CCCN(c3cnc(C(N)=O)c(Nc4ccc(C5(C)CCN(CCCCc6cccc7c6CN(C6CCC(=O)NC6=O)C7=O)CC5)cc4)n3)C2)C1=O (stereo partly shown) [Compound 21]
EC50 (TMD8 cells [4]): 1.6 nM | EMAX (% viable cells) (TMD8 cells [11]): 19%

NC(=O)[C@H]1CCN(c2ncnc(N)c2F)C[C@@H]1N1CCC[C@@H](Nc2cc(Cl)cc(C(F)(F)F)c2)C1=O [Vecabrutinib]
EC50 (TMD8 cells [4]): 256 nM | EMAX (% viable cells) (TMD8 cells [11]): 38% | EMAX (% viable cells) (TMD8 C481S cells [12]): 51% | EC50 (TMD8 C481S cells [8]): 530 nM

NC(=O)c1ncc(-c2nccs2)nc1Nc1ccc(C2CCN(C[C@@H]3CCN(c4ccc5c(c4)C(=O)N(C4CCC(=O)NC4=O)C5=O)C3)CC2)cc1 (stereo partly shown) [Compound 148]
EC50 (TMD8 cells [4]): 3.27 nM | EMAX (% viable cells) (TMD8 cells [4]): 2% | DC50 (BTK C481S): 9.7 nM | EC50 (TMD8 C481S cells [8]): 9.18 nM | EMAX (% viable cells) (TMD8 C481S cells [8]): 4% | % BTK Remaining (BTK [1]; [17]): 24% | DC50 (BTK [2]; treatment time 24 h): 0.68 nM
